# Measurements as given in article PMC13065080, “Discovery of a potent anti-Zika virus benzamide series targeting the viral protein NS4B” (PLOS Pathogens, 2026).
# Like-named read-outs stand apart in the source and are kept apart here.
# Legend:
# [1] = tested on: CHIKV; assay: microbe, parasite or virus in culture; format: cell-based; conditions: Vero 76; read-out: EC50-CPE CHIKV
# [2] = tested on: ZIKV-RLuc; assay: microbe, parasite or virus in culture; format: cell-based, Zika virus; conditions: for Fold-change of EC50, Wt: ZIKV RLuc assay, reference
# [3] = target: ZIKV NS4B (Zika virus, UniProt A0A142I5B9); assay: biochemical; format: binding
# [4] = tested on: ZIKV-RLuc NS4B A245T; format: cell-based, Zika virus
# [5] = in vitro; conditions: African green monkey, CC50 Vero76
# [6] = tested on: ZIKV PLCal; assay: CPE-based anti-ZIKV concentration-response assay (96-well); format: cell-based, Zika virus
# [7] = tested on: ZIKV PLCal; assay: Virus yield (titer) reduction assay in Huh 7.5.1 cells; format: cell-based, Zika virus; conditions: 1 µM
# [8] = tested on: ZIKV-RLuc NS4B V241L; format: cell-based, Zika virus
# [9] = tested on: ZIKV-RLuc NS4B V248G; format: cell-based, Zika virus
# [10] = tested on: Vero76
# [11] = tested on: ZIKV Ib H30656; assay: microbe, parasite or virus in culture; format: cell-based; conditions: CPE-protection
# [12] = tested on: DENV Type 4 H241; assay: microbe, parasite or virus in culture; format: cell-based; conditions: CPE-protection; read-out: EC50 DENV Type 4 H241
# [13] = tested on: ZIKV DAK-41525-MA; assay: CPE-protection assay, ZIKV DAK-41525-MA; format: cell-based, Zika virus
# [14] = tested on: YFV 17D; assay: microbe, parasite or virus in culture; format: cell-based; conditions: CPE-protection
# [15] = tested on: ZIKV PLCal; assay: CPE-based phenotypic HTS assay (1536-well); format: cell-based, Zika virus; conditions: n = 10, uridine supplemented
# Procedure: To begin, 600 cells at 2.5 μL/ well of Vero 76 cells in MEM-E supplemented with 10% FBS and 1X Antibiotic-Antimycotic (Gibco 15240-062) were dispensed to 1536 well plate (Aurora EBB0-40000A) and incubated at 37 °C in humidified incubators with 5% CO2 for 24 hours. After that, 30 nL of each compound or vehicle (75% DMSO) were transferred using pintool and further incubated for 2 hours. […] For the negative control wells (N = 24/plate), only virus dilution media was dispensed. Positive control wells contained virus and cells (N = 24/plate). After incubation at 37 °C in humidified incubators with 5% CO2 for 72 hours, plates were incubated for 10 minutes at room temperature, followed by dispensing 5 μL/well CellTiter Glo (Promega). Luminescent signal was detected using PHERAstar FSX (BMG Labtech).
# In the primary screen, compounds were tested at a single concentration in singlicate at a final nominal concentration of 6.95 μM. Raw assay data was imported into UF Scripps’ corporate database and subsequently analyzed using Symyx software. Activity of each compound was calculated on a per-plate basis using the following equation: Percent Response of compound = 100*((Test Well-Median Data Wells)/ (Median High Control - Median Data Wells)). […]
# [16] = tested on: JEV SA-14; assay: CPE-protection assay, JEV; format: cell-based, Japanese encephalitis virus
# [17] = tested on: ZIKV MR766; assay: microbe, parasite or virus in culture; format: cell-based; conditions: CPE-protection
# [18] = tested on: ZIKV PRVABC59; assay: microbe, parasite or virus in culture; format: cell-based; conditions: CPE-protection
# [19] = tested on: ZIKV FLR; assay: microbe, parasite or virus in culture; format: cell-based; conditions: CPE-protection
# [20] = tested on: WNV NY-99; assay: CPE-protection assay, WNV; format: cell-based, West Nile virus
# [21] = wild type ZIKV-RLuc, Vero 76, MOI 0.1, three days, read-out: EC50 ZIKV-RLuc
# [22] = Zika virus, 72 h, Vero 76, MOI 0.05, 3-day incubation, CellTiter-Glo, read-out: EC50-CPE ZIKV-PLCal
# [23] = Zika virus, Fig 7, read-out: CPE EC50
# [24] = Zika virus, Vero 76, 72 h, wild type ZIKV-RLuc, Vero 76, MOI 0.1, three days, read-out: EC50 ZIKV-RLuc
# [25] = Zika virus, Fig 7, read-out: RLuc EC50
# [26] = Vero 76, MOI 0.05, 3-day incubation, CellTiter-Glo, read-out: EC50-CPE ZIKV-PLCal
structure (smiles),measurement,setting,value
COc1ccc(C(C)NC(=O)c2ccc(C(C)(C)C)cc2)cc1 (racemic) [MWAC-3489],EC50,[1],> 50000 nM
same,EC50,[2]; [21],1220 ± 860 nM
CC(C)(C)c1ccc(C(=O)N2C[C@H](C(=O)O)[C@@H](c3cccc(F)c3)C2)cc1 (relative stereo) [MWAC-3533],Kd,[3],~35000 nM
same,19F-NMR signal change with ZIKV NS4B,[3]; compound 50 µM,shifted by the presence of ZIKV NS4B in a concentration-dependent manner
same,EC50,"[2]; Zika virus, Vero 76, 72 h, read-out: EC50 ZIKV-RLuc",~16000 nM
"CC(C)(C)c1ccc(C(=O)N[C@@H]2C[C@H]3CC[C@@H]2C3)cc1 (relative stereo) [MWAC-3989, N-((exo)-bicyclo[2.2.1]heptan-2-yl)-4-(tert-butyl)benzamide]",EC50,[4],450 ± 50 nM
same,CC50,[5],> 50000 nM
same,EC50,[6]; [22],460 ± 100 nM
same,EC50,[6]; [23],340 nM
same,VYR: Virus Yield reduction (Log 10),[7],-0.18 ± 0.14 Log 10
same,EC50,[8],10600 ± 2040 nM
same,EC50,[2]; [24],70 ± 7 nM
same,EC50,[2]; [25],115 nM
same,EC50,[2]; [21],130 ± 68 nM
same,EC50,[9],4000 ± 760 nM
"CC(C)(C)c1ccc(C(=O)N[C@H]2C[C@H]3CC[C@@H]2C3)cc1 (relative stereo) [MWAC-3992, N-((endo)-bicyclo[2.2.1]heptan-2-yl)-4-(tert-butyl)benzamide]",EC50,[4],2770 ± 310 nM
same,CC50,[5],63000 nM
same,EC50,[6]; [23],940 nM
same,VYR: Virus Yield reduction (Log 10),[7],-1.20 ± 0.09 Log 10
same,EC50,[8],27500 nM
same,EC50,[2]; [24],340 ± 18 nM
same,EC50,[2]; [25],580 nM
same,EC50,[9],16800 ± 2540 nM
CC(C)(C)c1ccc(C(=O)NC2CCS(=O)(=O)C2)cc1 (stereo not shown) [MWAC-3506],CC50,[5],> 50000 nM
same,EC50,[6]; [22],> 50000 nM
same,EC50,[2]; [24],> 50000 nM
CC(C)(C)c1ccc(C(=O)NC2CC3CCC2C3)cc1 (stereo not shown) [MWAC-3508],EC50,[4],810 ± 110 nM
same,CC50,[5],> 50000 nM
same,EC50,[6]; [23],360 nM
same,VYR: Virus Yield reduction (Log 10),[7],-0.93 ± 0.07 Log 10
same,EC50,[8],13200 ± 1870 nM
same,EC50,[2]; [24],110 ± 2 nM
same,EC50,[2]; [25],150 nM
same,EC50,[9],4370 ± 370 nM
CC(C)(C)c1ccc(C(=O)NC2CCOC2)cc1 (stereo not shown) [MWAC-3509],CC50,[5],> 50000 nM
same,EC50,[6]; [22],18000 nM
same,EC50,[2]; [24],6100 nM
CC(NC(=O)c1ccc(C(C)(C)C)cc1)c1ccncc1 (stereo not shown) [MWAC-3510],CC50,[5],> 48000 nM
same,EC50,[6]; [22],> 50000 nM
same,EC50,[2]; [24],15000 nM
CC(C)(C)c1ccc(C(=O)NC2CCN(Cc3ccccc3)CC2)cc1 [MWAC-3512],CC50,[5],58000 nM
same,EC50,[6]; [22],44000 nM
same,EC50,[2]; [24],7400 nM
"O=C(NC1CC2CCC1C2)c1ccc(C2CC2)cc1 (stereo not drawn) [MWAC-3990, N-((exo)-bicyclo[2.2.1]heptan-2-yl)-4-cyclopropylbenzamide]",CC50,[10],22700 nM
same,EC50,[6]; [26],33100 ± 25500 nM
same,EC50,[2]; [21],3010 ± 1110 nM
"CC(C)c1ccc(C(=O)NC2CC3CCC2C3)cc1 (stereo not drawn) [MWAC-3991, N-((exo)-bicyclo[2.2.1]heptan-2-yl)-4-isopropylbenzamide]",CC50,[10],> 50000 nM
same,EC50,[6]; [26],2580 ± 1390 nM
same,EC50,[2]; [21],720 ± 220 nM
"CC(C)(O)c1ccc(C(=O)NC2CC3CCC2C3)cc1 (stereo not drawn) [MWAC-3995, N-((exo)-bicyclo[2.2.1]heptan-2-yl)-4-(2-hydroxypropan-2-yl)benzamide]",CC50,[10],> 50000 nM
same,EC50,[6]; [26],39000 nM
same,EC50,[2]; [21],13900 nM
"CCc1ccc(C(=O)NC2CC3CCC2C3)cc1 (stereo not drawn) [MWAC-3996, N-((exo)-bicyclo[2.2.1]heptan-2-yl)-4-ethylbenzamide]",CC50,[10],> 50000 nM
same,EC50,[6]; [26],27100 ± 16800 nM
same,EC50,[2]; [21],4880 ± 1360 nM
"O=C(NC1CC2CCC1C2)c1ccc(C(F)(F)F)cc1 (stereo not drawn) [MWAC-3997, N-((exo)-bicyclo[2.2.1]heptan-2-yl)-4-(trifluoromethyl)benzamide]",CC50,[10],> 50000 nM
same,EC50,[6]; [26],39000 ± 15300 nM
same,EC50,[2]; [21],4060 ± 1170 nM
"COC(C)(C)c1ccc(C(=O)NC2CC3CCC2C3)cc1 (stereo not drawn) [MWAC-3998, N-((exo)-bicyclo[2.2.1]heptan-2-yl)-4-(2-methoxypropan-2-yl)benzamide]",CC50,[10],> 50000 nM
same,EC50,[6]; [26],2720 ± 1240 nM
same,EC50,[2]; [21],760 ± 50 nM
"CC(C)(C)c1ccc(C(=O)NC2CCCCC2)cc1 [MWAC-4000, 4-(tert-butyl)-N-cyclohexylbenzamide]",EC50,[4],680 ± 90 nM
same,"Fold-increase / fold-change of EC50, NS4B A245T vs wild type",[4],21.2
same,CC50,[5],> 50000 nM
same,EC50,[6]; [23],210 nM
same,VYR: Virus Yield reduction (Log 10),[7],-1.67 ± 0.10 Log 10
same,EC50,[8],21300 ± 4870 nM
same,"Fold-increase / fold-change of EC50, NS4B V241L vs wild type",[8],659.3
same,"Fold-change of EC50, Wt",[2],1
same,EC50,[2]; [24],30 ± 3 nM
same,EC50,[2]; [25],90 nM
same,EC50,[9],6600 ± 530 nM
same,"Fold-increase / fold-change of EC50, NS4B V248G vs wild type",[9],204.7
"CC(C)(C)c1ccc(C(=O)NC2CCCCCC2)cc1 [MWAC-4001, 4-(tert-butyl)-N-cycloheptylbenzamide]",EC50,[4],1070 ± 160 nM
same,"Fold-increase / fold-change of EC50, NS4B A245T vs wild type",[4],25.1
same,CC50,[5],12000 nM
same,EC50,[6]; [23],90 nM
same,VYR: Virus Yield reduction (Log 10),[7],-2.68 ± 0.36 Log 10
same,EC50,[8],24000 nM
same,"Fold-increase / fold-change of EC50, NS4B V241L vs wild type",[8],564.2
same,"Fold-change of EC50, Wt",[2],1
same,EC50,[2]; [24],40 ± 6 nM
same,EC50,[2]; [25],50 nM
same,EC50,[9],10100 ± 810 nM
same,"Fold-increase / fold-change of EC50, NS4B V248G vs wild type",[9],238.2
"Cc1ccc(C(=O)NC2CC3CCC2C3)cc1 (stereo not drawn) [MWAC-4010, N-((exo)-bicyclo[2.2.1]heptan-2-yl)-4-methylbenzamide]",CC50,[10],> 50000 nM
"C#C[C@@]1(O)[C@H](O)[C@@H](CO)O[C@H]1n1ccc2c(N)ncnc21 [NITD-008, reference compound]",EC50,[11],1430 ± 230 nM
same,EC50,[4]; ZIKV RLuc assay,280 nM
same,"Fold-increase / fold-change of EC50, NS4B A245T vs wild type",[4]; ZIKV RLuc assay,1.29
same,EC50,[1],> 50000 nM
same,EC50,[12],180 ± 120 nM
same,EC50,[13],890 ± 220 nM
same,EC50,[14],270 ± 120 nM
same,EC50,[15],800 ± 37 nM
same,CC50,[10],19000 ± 10300 nM
same,EC50,[16],1850 ± 1100 nM
same,EC50,[6]; [26],360 ± 270 nM
same,EC50,[8]; ZIKV RLuc assay,760 nM
same,"Fold-increase / fold-change of EC50, NS4B V241L vs wild type",[8]; ZIKV RLuc assay,3.44
same,EC50,[17],1760 ± 200 nM
same,EC50,[18],690 ± 110 nM
same,EC50,[2]; [21],310 ± 130 nM
same,EC50,[19],1240 ± 90 nM
same,EC50,[20],3000 ± 2500 nM
same,EC50,[9]; ZIKV RLuc assay,200 nM
same,"Fold-increase / fold-change of EC50, NS4B V248G vs wild type",[9]; ZIKV RLuc assay,0.93
